On the set-up of series [1]: method as in PMID 1322662. The settings on record: cited from earlier work.
The nature of series [2]: Inhibition of linoleic acid lipid peroxidation induced by AAPH. The settings on record: pH 7.4, 37 °C. From the text: AAPH induced linoleic acid oxidation is based on the inhibition of lipid oxidation and provides a measure of how efficiently antioxidants protect against lipid oxidation in vitro. Oxidation of exogenous linoleic acid by a thermal free radical producer (AAPH) is followed by UV spectrophotometry in a highly-diluted sample [36, 42].
Production of conjugated diene hydroperoxide by oxidation of linoleic acid in an aqueous dispersion is monitored at 234 nm. 2,2′-Azobis(2-amidinopropane) dihydrochloride (AAPH) is used as a free radical initiator. Ten microliters of the 16 mM linoleic acid sodium salt solution was added to the UV cuvette containing 930 µL of […] phosphate buffer, pH 7.4 prethermostated at 37 °C. The oxidation reaction was initiated at 37 °C under air by the addition of 50 μL of 40 mM AAPH solution. Oxidation was carried out in the presence of aliquots (10 μL) of the tested coumarins. In the assay without antioxidant, lipid peroxidation was measured in the presence of the same level of DMSO. The rate of oxidation at 37 °C was monitored by recording the increase in absorption at 234 nm caused by conjugated diene hydroperoxides.

The target in series [3] is T1, soybean lipoxygenase (LOX) (Glycine max, UniProt P08170).
T1 construct: purchased Sigma Chemical, Co. (St. Louis, MO, USA)
T1 sequence (P08170 1-839): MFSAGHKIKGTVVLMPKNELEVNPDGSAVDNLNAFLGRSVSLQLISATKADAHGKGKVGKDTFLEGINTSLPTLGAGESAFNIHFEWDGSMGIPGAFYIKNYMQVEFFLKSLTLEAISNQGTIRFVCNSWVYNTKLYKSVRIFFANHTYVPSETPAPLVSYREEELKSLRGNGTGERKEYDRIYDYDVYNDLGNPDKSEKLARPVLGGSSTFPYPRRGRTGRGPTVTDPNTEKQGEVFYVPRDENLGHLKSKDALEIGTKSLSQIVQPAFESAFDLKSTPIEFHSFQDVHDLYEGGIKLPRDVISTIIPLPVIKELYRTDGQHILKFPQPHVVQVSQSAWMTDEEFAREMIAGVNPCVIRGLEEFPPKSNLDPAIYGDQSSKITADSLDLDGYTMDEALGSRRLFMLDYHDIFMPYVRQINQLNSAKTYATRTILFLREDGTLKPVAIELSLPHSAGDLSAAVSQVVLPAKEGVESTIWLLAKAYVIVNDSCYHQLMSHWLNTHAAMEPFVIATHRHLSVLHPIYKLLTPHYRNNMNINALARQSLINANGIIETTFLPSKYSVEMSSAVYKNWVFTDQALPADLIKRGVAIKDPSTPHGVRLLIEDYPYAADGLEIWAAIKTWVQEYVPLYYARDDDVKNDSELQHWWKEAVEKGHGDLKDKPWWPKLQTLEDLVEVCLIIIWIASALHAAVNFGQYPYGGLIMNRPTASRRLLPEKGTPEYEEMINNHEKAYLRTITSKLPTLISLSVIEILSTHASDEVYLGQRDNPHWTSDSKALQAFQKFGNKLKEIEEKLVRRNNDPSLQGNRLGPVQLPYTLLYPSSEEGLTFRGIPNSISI
In words: In vitro inhibition of soybean lipoxygenase, UV-absorbance-based enzyme assay. Type of series: biochemical. The following applies: soybean lipoxygenase, sodium linoleate, Tris buffer pH 9. The method, then:
The tested compounds dissolved in DMSO were incubated at room temperature with sodium linoleate (100 µL) and 200 µL of enzyme solution (1/9 × 10^−4 w/v in saline) in Tris buffer pH 9. The conversion of sodium linoleate to 13-hydroperoxylinoleic acid at 234 nm was recorded and compared with the appropriate standard inhibitor.

Series [4] is described as follows: Reducing activity of the DPPH stable free radical (RA%). The settings on record: DPPH 0.05 mM in ethanol. An excerpt:
It is well known that the interaction of the synthesized 3-acetyl-4-hydroxycoumarin N-acylhydrazones 2 with the stable free radical DPPH indicates their radical scavenging ability in an iron-free system. […] Considering the antioxidant activity of 3-acetyl-4-hydroxy coumarin (1) it seems to be higher than the hydrazone derivatives 2a–l in both concentrations and in relation with the time and it is correlated with the presence of 3-acetyl and 4-hydroxy groups in the lactone ring and the possibility of tautomers (A–D) formation as shown in Scheme 2. It has been reported that 3-acetyl-4-hydroxycoumarin mainly exists in endocyclic enol form (B) in polar solvents (methanol, ethanol) and it is well known that enols show antioxidant activity e.g., it has been reported that enolic and phenolic hydroxyl groups is beneficial for curcumin to protect erythrocytes against hemin-induced hemolysis and to protect DNA against AAPH-induced oxidation. The lower results of hydrazones 2a–l, are correlated with their stereochemistry which influence their interaction with DPPH.
To an ethanolic solution of DPPH (0.05 mM) in absolute ethanol the new coumarin derivatives dissolved in DMSO were added (final concentration 50 and 100 µM). The mixture was shaken vigorously and allowed to stand for 20 min or 60 min; absorbance at 517 nm was determined spectrophotometrically against the blank and the percentage of reducing activity (RA) was calculated by the formula: RA% = [(A0 − A1)/A0] × 100 where A0 is the absorbance of blank and A1 is the absorbance of the reaction mixture.
A general note: DPPH is a stable violet radical that fades when it is reduced.

For `O=c1cc(O)c2ccccc2o1` [4-hydroxy coumarin], the antioxidant activity entry in series [1] is “not found to present any antioxidant activity”.

`CC(=NNC(=O)c1ccccc1[N+](=O)[O-])c1c(O)c2ccccc2oc1=O` [2l, 3-{N-[(2′-Nitrobenzoyl)hydrazono]ethyl}-4-hydroxycoumarin] returned a melting point of 219 °C. Besides, the “LP 60 s, 100 μM (% inhibition of LP induced by AAPH)” value in series [2] is 95 ± 6.2%. The compound further returned an IC50 in series [3] of 35 ± 0.2 µM. The “RA%, 50 μM, 20 min” value in series [4] (compound 50 μM, 20 min) is 6 ± 0.3%. Also, in series [4] (compound 50 μM, 60 min), the “RA%, 50 μM, 60 min” value turned out to be 10 ± 0.2%. For the same compound, the “RA%, 100 µM, 20 min” value in series [4] (compound 100 µM, 20 min) came to 27 ± 2.2%. Besides, the “RA%, 100 μM, 60 min” value in series [4] (compound 100 μM, 60 min) came out at 29 ± 1.0%.

A word on the melting point: it is the temperature, or range, at which the solid turns liquid. A word on the IC50: it is the concentration needed to halve the response being measured. Higher therefore signals a need for much substance.

The values are drawn from article PMC6273125, “Antioxidant Activity of 3-[N-(Acylhydrazono)ethyl]-4-hydroxy-coumarins” (Molecules, 2016).
